Assay [1] relates to A549 cells. Kind of assay: MTT cell growth inhibition assay, A549. Format: cell-based. The conditions noted are these: Homo sapiens, A549 cells (KRAS mutation), 72 h. The protocol: (§1) Inhibition of cell growth by compounds was measured using MTT assay (Mosmann, T., Journal of Immunological Methods, 1983, 65, 55-63). Tumor cell lines were purchased from ATCC (American Type Culture Collection, Manassas, Va.). All cell lines were maintained in RPMI 1640 (Hyclone) supplemented with 10% fetal bovine serum (FBS, Hyclone), glutamine (2 mM, Hyclone), and antibiotics (penicillin 100 U/mL and streptomycin 50 μg/mL) at 37° C. in a humidified atmosphere of 5% CO2 in air. Taxol (as a positive control, Sigma) and compounds were dissolved in DMSO (Sigma), and the final concentration of DMSO in the medium was 1%. Tumor cells were plated in 96-well plates at densities of about 4000 cells/well of a 96-well plate and allowed to adhere/grow for 24 h. They were then treated with various concentrations of drug for 72 h. 3-(4,5-Dimethylthiazol-2-yl)-2,5-diphenyltetrazolium bromide (MTT, Sigma) was used to determine the number of viable cells at the time of compound addition and the number of cells remaining after 72 h compound exposure. The number of cells remaining after 72 h was compared to the number of viable cells at the time of compound addition by measuring the absorbance at 570 nm, allowing for the calculation of growth inhibition.
(§2) All concentrations of compounds were tested in triplicate and controls were averaged over 4 wells. IC50 was calculated by plotting the concentration of compound vs the percentage of inhibition in treated wells using GraphPad Prism 5.
(§3) Tables 5 show IC50 values of several compounds of the invention in A549, A431, H1299, and H1975 human cancer cells. A549 cells have a mutation on KRAS, H3255 cells have L858R mutation, and H1975 cells have double EGFR mutations (L858R/T790M). The scale utilized in Table 5 is as follows: +++ less than 100 nM; ++ between 100 nM and 500 nM; and + greater than 500 nM.

Assay [2] has as its target T1, EGFR (ErbB1) T790M L858R (Homo sapiens, UniProt P00533, L858R/T790M).
T1 construct: purchased Invitrogen
Nature of the assay: Z'-LYTE kinase inhibition assay (Invitrogen), EGFR L858R/T790M. Format: biochemical. As to conditions: for inhibition at 0.1 µM: compound at 100 nM, [ATP] = Km. The essentials: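 Z′-LYTE FRET assay with EGFR L858R/T790M (0.38-4.22 ng) and 2 μM Tyr 04 peptide in 50 mM HEPES pH 7.0, 10 mM MgCl2, 1 mM EGTA, 1% DMSO; 1 h kinase reaction at room temperature, then 1 h development. 10-point 3-fold titrations; IC50 from concentration vs % inhibition.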

The test system of assay [3] is H1975 cells. Nature of the assay: MTT cell growth inhibition assay, H1975. It counts as cell-based. As to conditions: Homo sapiens, NCI-H1975, H1975 cells (EGFR L858R/T790M), 72 h. The protocol: as §1, §2, §3
In assay [4] the test system is H3255 cells. Kind of assay: MTT cell growth inhibition assay, H3255. As to conditions: Homo sapiens, NCI-H3255, H3255 cells (L858R mutation), 72 h. Format: cell-based. The protocol:
as §1, §2, §3

Assay [5] concerns the target T2, EGFR (ErbB1) (Homo sapiens, UniProt P00533).
T2 construct: purchased Invitrogen
Kind of assay: Z'-LYTE kinase inhibition assay (Invitrogen), EGFR. Format: biochemical. As to conditions: for inhibition at 0.1 µM: compound at 100 nM, [ATP] = Km. The procedure, abridged:
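Z'-LYTE FRET assay: 1.1-5.25 ng EGFR with 2 μM Tyr 04 peptide in 50 mM HEPES pH 7.5, 10 mM MgCl2, 2 mM MnCl2, 1 mM EGTA, 1 mM DTT, 1% DMSO; 60 min kinase reaction then 60 min development at room temperature. IC50 from 10-point 3-fold titrations, percent inhibition vs concentration.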

For assay [6], the system named is A431 cells. Kind of assay: MTT cell growth inhibition assay, A431. The conditions noted are these: Homo sapiens, A-431, 72 h. Format: cell-based. Here is the method:
as §1, §2, §3

The target of assay [7] is T3, BTK (Homo sapiens, UniProt Q06187).
T3 construct: purchased Invitrogen
T3 sequence (Q06187 whole entry): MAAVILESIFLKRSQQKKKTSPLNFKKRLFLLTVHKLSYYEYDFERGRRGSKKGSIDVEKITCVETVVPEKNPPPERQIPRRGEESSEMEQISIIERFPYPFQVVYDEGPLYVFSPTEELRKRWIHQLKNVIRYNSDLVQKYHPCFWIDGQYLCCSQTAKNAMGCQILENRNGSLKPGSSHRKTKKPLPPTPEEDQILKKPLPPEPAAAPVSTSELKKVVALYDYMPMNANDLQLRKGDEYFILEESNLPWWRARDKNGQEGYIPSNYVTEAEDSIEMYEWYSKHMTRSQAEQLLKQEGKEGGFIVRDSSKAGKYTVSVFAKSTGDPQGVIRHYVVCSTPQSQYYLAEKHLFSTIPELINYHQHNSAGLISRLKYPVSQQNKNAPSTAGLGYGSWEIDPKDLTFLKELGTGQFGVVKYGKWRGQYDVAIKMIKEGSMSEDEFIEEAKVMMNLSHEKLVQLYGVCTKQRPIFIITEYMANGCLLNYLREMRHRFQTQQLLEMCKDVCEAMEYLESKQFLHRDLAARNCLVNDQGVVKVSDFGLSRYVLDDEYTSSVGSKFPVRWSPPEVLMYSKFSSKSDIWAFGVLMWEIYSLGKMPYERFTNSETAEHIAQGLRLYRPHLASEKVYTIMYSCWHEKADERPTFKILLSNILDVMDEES
Nature of the assay: Z'-LYTE kinase inhibition assay (Invitrogen), BTK. It counts as biochemical. The conditions noted are these: for inhibition at 0.1 µM: compound at 100 nM, [ATP] = Km. The essentials: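 Z′-LYTE FRET read-out with Tyr 01 peptide 2 μM and 1.04-10.4 ng kinase in HEPES pH 7.5, MgCl2, EGTA, BRIJ-35; 1 h room temperature reaction, then 1 h development.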

Usually IC50 stands for the concentration needed to halve the response being measured. Usually inhibition stands for the change of the read-out against control, counted positive when it falls.

T1 sequence (P00533 25-1210 T790M/L858R): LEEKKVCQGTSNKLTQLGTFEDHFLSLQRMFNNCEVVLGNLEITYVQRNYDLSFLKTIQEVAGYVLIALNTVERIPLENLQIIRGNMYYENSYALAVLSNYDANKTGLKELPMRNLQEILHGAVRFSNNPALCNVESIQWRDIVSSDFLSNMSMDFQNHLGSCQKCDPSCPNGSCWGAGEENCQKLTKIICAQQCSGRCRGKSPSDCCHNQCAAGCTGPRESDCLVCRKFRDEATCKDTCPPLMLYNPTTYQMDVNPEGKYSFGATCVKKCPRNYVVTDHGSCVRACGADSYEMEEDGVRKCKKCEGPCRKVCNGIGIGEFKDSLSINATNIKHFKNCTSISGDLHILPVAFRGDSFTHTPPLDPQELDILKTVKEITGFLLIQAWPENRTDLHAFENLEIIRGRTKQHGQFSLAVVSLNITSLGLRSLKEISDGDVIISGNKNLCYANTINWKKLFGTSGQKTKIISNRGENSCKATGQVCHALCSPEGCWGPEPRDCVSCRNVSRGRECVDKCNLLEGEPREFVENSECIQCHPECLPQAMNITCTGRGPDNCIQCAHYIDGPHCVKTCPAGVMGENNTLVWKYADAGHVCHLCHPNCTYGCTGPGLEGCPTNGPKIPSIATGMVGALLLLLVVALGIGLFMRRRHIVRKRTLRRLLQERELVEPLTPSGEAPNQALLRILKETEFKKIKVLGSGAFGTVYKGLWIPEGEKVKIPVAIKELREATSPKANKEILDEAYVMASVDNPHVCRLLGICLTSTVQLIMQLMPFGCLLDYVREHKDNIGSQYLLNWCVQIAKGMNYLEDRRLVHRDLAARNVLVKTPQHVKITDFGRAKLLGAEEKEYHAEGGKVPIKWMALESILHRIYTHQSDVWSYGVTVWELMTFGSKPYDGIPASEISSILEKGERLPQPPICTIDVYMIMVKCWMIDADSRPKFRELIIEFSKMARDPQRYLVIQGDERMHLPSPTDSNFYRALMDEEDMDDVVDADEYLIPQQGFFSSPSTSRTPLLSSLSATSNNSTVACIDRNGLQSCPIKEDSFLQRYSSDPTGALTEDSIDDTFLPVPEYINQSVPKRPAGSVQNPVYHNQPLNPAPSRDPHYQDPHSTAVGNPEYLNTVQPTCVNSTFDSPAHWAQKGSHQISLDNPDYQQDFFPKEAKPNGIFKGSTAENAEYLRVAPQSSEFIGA
T2 sequence (P00533 25-1210): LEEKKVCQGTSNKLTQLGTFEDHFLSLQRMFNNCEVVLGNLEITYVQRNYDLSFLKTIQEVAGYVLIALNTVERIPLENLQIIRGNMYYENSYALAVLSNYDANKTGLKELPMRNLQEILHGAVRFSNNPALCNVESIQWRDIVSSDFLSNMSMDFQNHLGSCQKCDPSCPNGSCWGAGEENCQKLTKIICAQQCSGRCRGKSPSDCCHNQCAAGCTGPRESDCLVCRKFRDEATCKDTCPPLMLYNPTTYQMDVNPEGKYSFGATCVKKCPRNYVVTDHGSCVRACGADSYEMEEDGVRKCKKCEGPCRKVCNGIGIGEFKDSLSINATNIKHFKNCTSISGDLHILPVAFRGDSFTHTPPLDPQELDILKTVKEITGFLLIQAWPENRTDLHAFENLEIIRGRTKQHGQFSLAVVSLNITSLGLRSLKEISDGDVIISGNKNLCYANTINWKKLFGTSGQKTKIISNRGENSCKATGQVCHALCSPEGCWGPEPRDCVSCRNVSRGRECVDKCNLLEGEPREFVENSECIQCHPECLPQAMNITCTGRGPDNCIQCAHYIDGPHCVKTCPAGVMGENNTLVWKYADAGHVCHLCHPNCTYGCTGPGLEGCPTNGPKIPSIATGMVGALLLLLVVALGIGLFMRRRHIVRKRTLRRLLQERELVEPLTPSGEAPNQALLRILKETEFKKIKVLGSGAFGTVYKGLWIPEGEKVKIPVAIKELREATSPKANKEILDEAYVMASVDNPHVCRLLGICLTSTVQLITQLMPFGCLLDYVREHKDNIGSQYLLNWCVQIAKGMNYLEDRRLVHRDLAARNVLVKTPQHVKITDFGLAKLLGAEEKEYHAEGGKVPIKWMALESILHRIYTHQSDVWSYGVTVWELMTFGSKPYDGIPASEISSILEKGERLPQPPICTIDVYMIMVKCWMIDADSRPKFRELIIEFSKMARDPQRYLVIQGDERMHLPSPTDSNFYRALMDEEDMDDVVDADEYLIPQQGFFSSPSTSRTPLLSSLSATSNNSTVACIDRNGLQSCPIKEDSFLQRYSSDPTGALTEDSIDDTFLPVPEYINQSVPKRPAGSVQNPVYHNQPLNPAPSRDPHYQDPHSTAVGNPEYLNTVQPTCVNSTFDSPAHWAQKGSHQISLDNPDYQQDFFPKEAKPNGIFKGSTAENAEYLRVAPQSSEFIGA

`C=CC(=O)Nc1cc(Nc2ncc3cccc(-c4ccccc4)c3n2)ccc1N(C)CCN(C)C` [Example C004, N-(2-((2-(dimethylamino)ethyl)(methyl)amino)-5-((8-phenylquinazolin-2-yl)amino)phenyl)acrylamide]: the IC50 is less than 100 nM in assay [1]; less than 100 nM in assay [2]; less than 100 nM in assay [3]; less than 100 nM in assay [4]; more than 100 nM in assay [5]; less than 100 nM in assay [6]. The molecule further gave an IC50 in assay [7] of less than 100 nM. In addition, the inhibition at 0.1 µM in assay [2], in assay [5] and in assay [7] was more than 50% each time.
As to `C=CC(=O)Nc1cc(Nc2ncc3cccc(-c4cccc(Cl)c4)c3n2)ccc1N(C)CCN(C)C` [Example C005, N-(5-((8-(3-chlorophenyl)quinazolin-2-yl)amino)-2-((2-(dimethylamino)ethyl)(methyl)amino)phenyl) acrylamide], the IC50 in assay [1] was 100 to 500 nM; in assay [2], less than 100 nM; in assay [3], less than 100 nM; in assay [4], less than 100 nM; in assay [5], more than 100 nM; in assay [6], less than 100 nM. The inhibition at 0.1 µM in assay [2], in assay [5] and in assay [7] was more than 50% throughout.
For `C=CC(=O)Nc1cc(Nc2ncc3cccc(-c4cccc(F)c4)c3n2)ccc1N(C)CCN(C)C` [Example C006, N-(2-((2-(dimethylamino)ethyl)(methyl)amino)-5-((8-(3-fluorophenyl)quinazolin-2-yl)amino)phenyl)acrylamide], the IC50 in assay [1], in assay [2], in assay [3], in assay [4], in assay [5] and in assay [6] was less than 100 nM in each case. Besides, the inhibition at 0.1 µM in assay [2], in assay [5] and in assay [7] was more than 50% each time.
As for `C=CC(=O)Nc1cc(Nc2ncc3cccc(-c4cncc(F)c4)c3n2)ccc1N(C)CCN(C)C` [Example C022, N-(2-((2-(dimethylamino)ethyl)(methyl)amino)-5-((8-(5-fluoropyridin-3-yl)quinazolin-2-yl)amino)phenyl)acrylamide], the results for the IC50 in assay [1], in assay [3] and in assay [6] were 100 to 500 nM, less than 100 nM and less than 100 nM, respectively. Besides, the inhibition at 0.1 µM in assay [2] is more than 50%; in assay [5], less than 50%; in assay [7], more than 50%.

For the origin of these results see patent publication US10947201B2, “Certain chemical entities, compositions, and methods” (NEUPHARMA, INC., priority 2015, dated 2021).
